Experimental findings from patent publication US20230382924A1, “MODULATORS OF CYSTIC FIBROSIS TRANSMEMBRANE CONDUCTANCE REGULATOR” (VERTEX PHARMACEUTICALS INCORPORATED, priority 2020, published 2023) are described below.

The target in data set [1] is T1, CFTR (Homo sapiens, UniProt P13569). Nature of the data set: Membrane Potential Dye, Enteroid Assay B. It counts as cell-based. The note with it: for EC50: read-out: Ent. B EC50. The essentials:
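Enteroid cells loaded 25 min at room temperature with 20 μM methyl oxonol plus 30 μM CaCCinh-A01 and 30 μM Chicago Sky Blue, then switched to chloride-free gluconate buffer. Chloride transport was started by chloride-free stimulation solution, with fluorescence read for 15 min.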

For a further data set, the target named is T2, F508del (Homo sapiens, UniProt P13569, DEL508-508).
T2 construct: expressed in transfected cells
Nature of the data set: 3T3 assay: membrane potential optical assay for F508del correction in NIH 3T3 cells. It counts as cell-based. The text has this: 1. Membrane Potential Optical Methods for Assaying F508del Modulation Properties of Compounds
The assay utilizes fluorescent voltage sensing dyes to measure changes in membrane potential using a fluorescent plate reader (e.g., FLIPR III, Molecular Devices, Inc.) as a readout for increase in functional F508del in NIH 3T3 cells. The driving force for the response is the creation of a chloride ion gradient in conjunction with channel activation by a single liquid addition step after the cells have previously been treated with compounds and subsequently loaded with a voltage sensing dye.
2. Identification of Corrector Compounds
To identify correctors of F508del, a single-addition HTS assay format was developed. This HTS assay utilizes fluorescent voltage sensing dyes to measure changes in membrane potential on the FLIPR III as a measurement for increase in gating (conductance) of F508del in F508del NIH 3T3 cells. The F508del NIH 3T3 cell cultures were incubated with the corrector compounds at a range of concentrations for 18-24 hours at 37° C., and subsequently loaded with a redistribution dye. The driving force for the response is a Cl^− ion gradient in conjunction with channel activation with forskolin in a single liquid addition step using a fluorescent plate reader such as FLIPR III.
Bath Solution #1: (in mM) NaCl 160, KCl 4.5, CaCl2) 2, MgCl2 1, HEPES 10, pH 7.4 with NaOH.
Chloride-free bath solution: Chloride salts in Bath Solution #1 (above) are substituted with gluconate salts.
NIH3T3 mouse fibroblasts stably expressing F508del are used for optical measurements of membrane potential. The cells are maintained at 37° C. in 5% CO2 and 90% humidity in Dulbecco's modified Eagle's medium supplemented with 2 mM glutamine, 10% fetal bovine serum, 1×NEAA, b-ME, 1×pen/strep, and 25 mM HEPES in 175 cm^2 culture flasks. For all optical assays, the cells were seeded at ˜20,000/well in 384-well matrigel-coated plates. For the correction assays, the cells are cultured at 37° C. with and without compounds for 16-24 hours.

Data set [2] addresses T1, CFTR. Nature of the data set: Membrane Potential Dye, Enteroid Assay A. The note with it: for EC50: read-out: Ent. A EC50. It counts as cell-based. The gist of the method:
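Enteroid cells were loaded with methyl oxonol membrane potential dye (plus CaCCinh-A01 and Chicago Sky Blue) for 25 min at room temperature. Chloride transport was started by switching to chloride-free gluconate stimulation solution, with fluorescence read for 15 min. Activity was expressed as % of a triple-combination CFTR modulator control (3 μM, 3 μM, 300 nM acute).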

Where [3] appears, read: NIH 3T3 cells, F508del correction.

Each structure is given as a SMILES string. Read-outs that look alike come from different tables or passages of the source.

T1 sequence (P13569 with tags, fused parts or gaps DEL508-508): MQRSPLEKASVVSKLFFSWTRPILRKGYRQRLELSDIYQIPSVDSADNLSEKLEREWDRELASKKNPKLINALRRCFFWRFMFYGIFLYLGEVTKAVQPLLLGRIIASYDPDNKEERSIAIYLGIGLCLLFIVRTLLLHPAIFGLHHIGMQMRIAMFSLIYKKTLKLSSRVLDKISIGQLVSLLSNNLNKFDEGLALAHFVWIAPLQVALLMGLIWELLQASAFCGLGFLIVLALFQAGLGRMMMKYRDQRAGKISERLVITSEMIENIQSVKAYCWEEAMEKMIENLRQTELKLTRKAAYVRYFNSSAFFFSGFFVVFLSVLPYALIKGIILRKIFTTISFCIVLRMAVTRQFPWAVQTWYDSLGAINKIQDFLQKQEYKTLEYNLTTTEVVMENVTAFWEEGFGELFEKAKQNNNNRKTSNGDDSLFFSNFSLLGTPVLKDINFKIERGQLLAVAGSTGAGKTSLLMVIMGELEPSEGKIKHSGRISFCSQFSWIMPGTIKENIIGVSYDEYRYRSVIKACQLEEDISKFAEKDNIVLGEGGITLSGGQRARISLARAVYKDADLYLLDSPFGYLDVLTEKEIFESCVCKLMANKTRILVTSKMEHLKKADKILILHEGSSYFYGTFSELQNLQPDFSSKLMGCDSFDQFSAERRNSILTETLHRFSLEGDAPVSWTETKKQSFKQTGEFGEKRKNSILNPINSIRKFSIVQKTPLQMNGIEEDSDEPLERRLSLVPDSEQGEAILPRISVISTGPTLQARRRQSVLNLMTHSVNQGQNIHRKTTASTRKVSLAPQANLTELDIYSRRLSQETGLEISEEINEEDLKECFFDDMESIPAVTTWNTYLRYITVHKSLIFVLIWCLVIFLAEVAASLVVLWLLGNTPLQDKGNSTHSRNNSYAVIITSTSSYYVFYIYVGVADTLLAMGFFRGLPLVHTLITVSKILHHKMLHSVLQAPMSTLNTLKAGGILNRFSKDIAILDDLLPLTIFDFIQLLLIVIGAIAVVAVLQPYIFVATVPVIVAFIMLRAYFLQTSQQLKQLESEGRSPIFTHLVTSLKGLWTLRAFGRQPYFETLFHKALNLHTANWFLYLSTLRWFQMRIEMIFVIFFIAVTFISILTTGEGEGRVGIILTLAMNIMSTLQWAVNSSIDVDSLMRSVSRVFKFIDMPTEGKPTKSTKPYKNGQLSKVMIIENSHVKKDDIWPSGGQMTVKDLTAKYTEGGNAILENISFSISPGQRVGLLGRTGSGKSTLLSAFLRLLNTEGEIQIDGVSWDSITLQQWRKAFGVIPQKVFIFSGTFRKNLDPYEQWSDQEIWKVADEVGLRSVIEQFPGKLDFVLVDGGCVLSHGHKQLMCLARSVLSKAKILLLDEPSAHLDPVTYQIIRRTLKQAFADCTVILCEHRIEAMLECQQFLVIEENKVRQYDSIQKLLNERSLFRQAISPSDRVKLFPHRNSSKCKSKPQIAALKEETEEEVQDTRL
T2 sequence (P13569 with tags, fused parts or gaps DEL508-508): as above

Take `Cc1cccc(C)c1-c1cc2nc(n1)NS(=O)(=O)c1cc(n(C)n1)C(=O)N[C@H](CC(C)C)CO2` [Compound 76, (10R)-15-(2,6-Dimethylphenyl)-10-isobutyl-6-methyl-3,3-dioxo-12-oxa-3λ^6-thia-2,5,6,9,16,17-hexazatricyclo[11.3.1.14,7]octadeca-1(17),4,7(18),13,15-pentaen-8-one]: for the setting “from Cc1cccc(C)c1-c1cc(OC[C@H](N)CC(C)C)nc(NS(=O)(=O)c2cc(C(=O)O)n(C)n2)n1, amide bond, 13-membered ring, HATU/DIEA, DMF, 3.1 mM, 25.0 °C, 2.0 h”, the ring closure, yield after HPLC is 33%. On CFTR [1] (Table 9), the “Ent. B Max Activity” value is reported as “+++ (+++ is >60%)” and the EC50 is 1000 to 3000 nM.
For the molecule `Cc1cccc(C)c1-c1cc2nc(n1)NS(=O)(=O)c1cccc(c1)C(=O)N[C@H](CC1CCC1)CO2` [Compound 113, (11R)-11-(cyclobutylmethyl)-6-(2,6-dimethylphenyl)-9-oxa-2λ^6-thia-3,5,12,19-tetraazatricyclo[12.3.1.14,8]nonadeca-1(17),4,6,8(19),14(18),15-hexaene-2,2,13-trione], the ring closure, yield after HPLC (from Cc1cccc(C)c1-c1cc(OC[C@H](N)CC2CCC2)nc(NS(=O)(=O)c2cccc(C(=O)O)c2)n1, amide bond, 13-membered ring, HATU/DIEA, DMF, 65.5 mM, 25.0 °C, 1.0 h, 2 steps) stood at 21%. The EC50 on F508del (setting [3]) and on CFTR [2] (Enteroid Assay A) was under 1000 nM throughout. Also, on CFTR [2] (Enteroid Assay A), the “Ent. A Max Activity” value is on record as “+++ (+++ is >600%)”.
`Cc1cccc(C)c1-c1cc2nc(n1)NS(=O)(=O)c1cccc(c1)C(=O)NC[C@@H](C)O2` [Compound 28, (10R)-6-(2,6-dimethylphenyl)-10-methyl-2,2-dioxo-9-oxa-2λ^6-thia-3,5,12,19-tetrazatricyclo[12.3.1.14,8]nonadeca-1(18),4(19),5,7,14,16-hexaen-13-one] displayed a ring closure, yield after HPLC (from Cc1cccc(C)c1-c1cc(O[C@H](C)CN)nc(NS(=O)(=O)c2cccc(C(=O)O)c2)n1, amide bond, 13-membered ring, HATU/DIEA, DMF, 46.7 mM, 25.0 °C, 1.0 h, 2 steps) of 46%. Also, at CFTR [2] (Enteroid Assay A), the “Ent. A Max Activity” value was “+++ (+++ is >600%)” and the EC50 is 3000 to 30000 nM. In addition, at CFTR [1] (Enteroid Assay B), the “Ent. B Max Activity” value is listed as “++ (++ is 30-60%)” and the EC50 is 3000 to 30000 nM.
Consider `Cc1cccc(C)c1-c1cc2nc(n1)NS(=O)(=O)c1cccc(c1)NC(=O)Nc1cccc(c1)O2` [Compound 1, 5-(2,6-Dimethylphenyl)-9,9-dioxo-2-oxa-9λ^6-thia-6,8,15,17,24-pentazatetracyclo[16.3.1.13,7.110,14]tetracosa-1(21),3,5,7(24),10(23),11,13,18(22),19-nonaen-16-one], for which, under “from 3-amino-N-[4-(3-aminophenoxy)-6-(2,6-dimethylphenyl)pyrimidin-2-yl]benzenesulfonamide (Dihydrochloride salt), crosslinker bond, 15-membered ring, 1,3-dimethyl-tetrahydro-pyrimidin-2-one, 26.2 mM”, the ring closure, yield after HPLC turned out to be 13%. Moreover, the EC50 on F508del (setting [3]) and on CFTR [2] (Enteroid Assay A) was 1000 to 3000 nM in each case. The “Ent. A Max Activity” value at CFTR [2] (Enteroid Assay A) is listed as “++ (++ is 30-60%)”.
In turn, `Cc1cccc(C)c1-c1cc2nc(n1)NS(=O)(=O)c1cccc(c1)C(=O)N[C@H](CCC(C)C)CO2` [Compound 46, (11R)-6-(2,6-dimethylphenyl)-11-(3-methylbutyl)-9-oxa-2λ^6-thia-3,5,12,19-tetraazatricyclo[12.3.1.14,8]nonadeca-1(17),4,6,8(19),14(18),15-hexaene-2,2,13-trione] registered a ring closure, yield after HPLC (from Cc1cccc(C)c1-c1cc(OC[C@H](N)CCC(C)C)nc(NS(=O)(=O)c2cccc(C(=O)O)c2)n1, amide bond, 13-membered ring, HATU/DIEA, DMF, 9.1 mM, 25.0 °C, 1.0 h, 3 steps) of 3%. For the same molecule, the EC50 on F508del (setting [3]) is under 1000 nM. In addition, at CFTR [2] (Enteroid Assay A), the “Ent. A Max Activity” value is on record as “+++ (+++ is >600%)” and the EC50 is under 1000 nM.
On to `Cc1cccc(C)c1-c1cc2nc(n1)NS(=O)(=O)c1cccc(c1C)C(=O)N[C@H](CC1CCCCC1)CO2` [Compound 75, (11R)-11-(Cyclohexylmethyl)-6-(2,6-dimethylphenyl)-18-methyl-9-oxa-2λ^6-thia-3,5,12,19-tetraazatricyclo[12.3.1.14,8]nonadeca-1(17),4(19),5,7,14(18),15-hexaene-2,2,13-trione], for which the ring closure, yield after HPLC (from Cc1cccc(C)c1-c1cc(OC[C@H](N)CC2CCCCC2)nc(NS(=O)(=O)c2cccc(C(=O)O)c2C)n1, amide bond, 13-membered ring, HATU/TEA, DMF, 40.1 mM, 0.42 h) was found to be 8%. Moreover, the Emax at F508del (NIH3T3, Table 8, read-out: 3T3 Max Activity) is over 60%. The EC50 on F508del (Table 8) and at CFTR [2] (Table 8) was under 1000 nM throughout. Further, at CFTR [2] (Table 8), the “Ent. A Max Activity” value is listed as “+++ (+++ is >60%)”.
For the molecule `Cc1cccc(C)c1-c1cc2nc(n1)NS(=O)(=O)c1cccc(c1)C(=O)NCCC(c1ccc(C(C)(C)C)cc1)O2` (stereo not drawn) [Compound 55, 10-(4-tert-Butylphenyl)-6-(2,6-dimethylphenyl)-2,2-dioxo-9-oxa-2λ^6-thia-3,5,13,20-tetrazatricyclo[13.3.1.14,8]icosa-1(19),4(20),5,7,15,17-hexaen-14-one], the ring closure, yield after HPLC (from Cc1cccc(C)c1-c1cc(OC(CCN)c2ccc(C(C)(C)C)cc2)nc(NS(=O)(=O)c2cccc(C(=O)O)c2)n1, amide bond, 14-membered ring, HATU/TEA, DMF, 204.0 mM, 50.0 °C, 0.25 h) was found to be 18%. At CFTR [2] (Table 9), the “Ent. A Max Activity” value is given as “++ (++ is 30-60%)” and the EC50 is 1000 to 3000 nM.
In turn, `Cc1cccc(C)c1-c1cc2nc(n1)NS(=O)(=O)c1cccc(c1)C(=O)N[C@H](CC1CC1)CO2` [Compound 114, (11R)-11-(Cyclopropylmethyl)-6-(2,6-dimethylphenyl)-9-oxa-2λ^6-thia-3,5,12,19-tetraazatricyclo[12.3.1.14,8]nonadeca-1(17),4(19),5,7,14(18),15-hexaene-2,2,13-trione] yielded a ring closure, yield after HPLC (from Cc1cccc(C)c1-c1cc(OC[C@H](N)CC2CC2)nc(NS(=O)(=O)c2cccc(C(=O)O)c2)n1, amide bond, 13-membered ring, HATU/TEA, DMF, 18.8 mM, 17.0 h) of 61%. Further, on CFTR [2] (Enteroid Assay A), the “Ent. A Max Activity” value is recorded as “+++ (+++ is >600%)” and the EC50 was under 1000 nM.
Turning to `Cc1cccc(C)c1-c1cc2nc(n1)NS(=O)(=O)c1cccc(c1)C(=O)NC[C@@H](c1ccccc1)O2` [Compound 25, (10R)-6-(2,6-Dimethylphenyl)-2,2-dioxo-10-phenyl-9-oxa-2λ^6-thia-3,5,12,19-tetrazatricyclo[12.3.1.14,8]nonadeca-1(18),4(19),5,7,14,16-hexaen-13-one], for the setting “from Cc1cccc(C)c1-c1cc(O[C@@H](CN)c2ccccc2)nc(NS(=O)(=O)c2cccc(C(=O)O)c2)n1, amide bond, 13-membered ring, HATU/DIEA, DMF, 25.9 mM, 25.0 °C, 1.0 h, 2 steps”, the ring closure, yield after HPLC worked out at 23%. Also, at CFTR [2] (Enteroid Assay A), the “Ent. A Max Activity” value is listed as “+++ (+++ is >600%)” and the EC50 is under 1000 nM. On CFTR [1] (Enteroid Assay B), the “Ent. B Max Activity” value is “++ (++ is 30-60%)” and the EC50 was under 1000 nM.
Molecule `Cc1cccc(C)c1-c1cc2nc(n1)NS(=O)(=O)c1cccc(c1)C(=O)N[C@H](C)[C@H](c1ccc(C(F)(F)F)cc1)O2` [Compound 42, (10S,11R)-6-(2,6-dimethylphenyl)-11-methyl-2,2-dioxo-10-[4-(trifluoromethyl)phenyl]-9-oxa-2λ^6-thia-3,5,12,19-tetrazatricyclo[12.3.1.14,8]nonadeca-1(18),4(19),5,7,14,16-hexaen-13-one] came in with a ring closure, yield after HPLC (from Cc1cccc(C)c1-c1cc(O[C@@H](c2ccc(C(F)(F)F)cc2)[C@@H](C)N)nc(NS(=O)(=O)c2cccc(C(=O)O)c2)n1, amide bond, 13-membered ring, HATU/NaOtBu, DMF/THF, 96.3 mM, 25.0 °C, 0.33 h, 2 steps) of 4%. Also, on CFTR [2] (Table 9), the “Ent. A Max Activity” value is recorded as “++ (++ is 30-60%)” and the EC50 was under 1000 nM.
`Cc1cccc(C)c1-c1cc2nc(n1)NS(=O)(=O)c1cncc(n1)C(=O)N[C@H](CC(C)C)CO2` [Compound 70, (11R)-6-(2,6-dimethylphenyl)-11-isobutyl-2,2-dioxo-9-oxa-2λ^6-thia-3,5,12,16,18,19-hexazatricyclo[12.3.1.14,8]nonadeca-1(18),4(19),5,7,14,16-hexaen-13-one]: where the note is “from Cc1cccc(C)c1-c1cc(OC[C@H](N)CC(C)C)nc(NS(=O)(=O)c2cncc(C(=O)O)n2)n1, amide bond, 13-membered ring, HATU/DIEA, DMF, 18.6 mM, 25.0 °C, 25.0 h”, the ring closure, yield after HPLC came to 29%. On CFTR [1] (Table 9), the “Ent. B Max Activity” value is given as “+++ (+++ is >60%)” and the 50% effective concentration (EC50) was under 1000 nM.
